Measured values taken from the supplement of paper PMC10307832.

What was measured:
Test in all cases: relative viability (nuclei count vs DMSO), 5 days (fraction); higher = more cells survive
CAL-12T = system: CAL-12T
Procedure, shortened: (§1)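 Relative viability was taken as the ratio of nuclei in treated wells to nuclei in vehicle wells. Lung cancer cell lines in 1536-well plates received compounds by pin tool one day after seeding, either one drug alone or a fixed anchor-drug dose plus five library-drug doses (not always all listed) in √10 steps. Nuclei were counted on 4× images after 5 days of treatment, and values are medians of duplicate plates.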

NCI-H1755 = system: NCI-H1755
Procedure, shortened: as §1

NCI-H2405 = system: NCI-H2405
Procedure, shortened: as §1

NCI-H2342 = system: NCI-H2342
Procedure, shortened: as §1

PC-14 = system: PC-14
Procedure, shortened: as §1

HCC-827 = system: HCC-827
Procedure, shortened: as §1

EKVX = system: EKVX
Procedure, shortened: as §1

LK-2 = system: LK-2
Procedure, shortened: as §1

NCI-H661 = system: NCI-H661
Procedure, shortened: as §1

NCI-H520 = system: NCI-H520
Procedure, shortened: as §1

NCI-H2228 = system: NCI-H2228
Procedure, shortened: as §1

H3255 = system: H3255
Procedure, shortened: as §1

NCI-H1734 = system: NCI-H1734
Procedure, shortened: as §1

NCI-H1975 = system: NCI-H1975
Procedure, shortened: as §1

PC-3 [JPC-3] = system: PC-3 [JPC-3]
Procedure, shortened: as §1

LCLC-97TM1 = system: LCLC-97TM1
Procedure, shortened: as §1

HCC-15 = system: HCC-15
Procedure, shortened: as §1

NCI-H1650 = system: NCI-H1650
Procedure, shortened: as §1

NCI-H1355 = system: NCI-H1355
Procedure, shortened: as §1

RERF-LC-KJ = system: RERF-LC-KJ
Procedure, shortened: as §1

NCI-H322M = system: NCI-H322M
Procedure, shortened: as §1

NCI-H1563 = system: NCI-H1563
Procedure, shortened: as §1

Work on `Nc1ccn([C@@H]2O[C@H](CO)[C@@H](O)[C@@H]2O)c(=O)n1` [Cytarabine] + COc1cccc2cc(-c3nc([C@H]4CC[C@H](C(=O)O)CC4)n4ncnc(N)c34)[nH]c12 [OSI-027] (partner 0.5 µM) yielded a relative viability (CAL-12T; first compound 0.005 µM) of 0.697, a relative viability (CAL-12T; first compound 0.01581 µM) of 0.507 and a relative viability (CAL-12T; first compound 0.05 µM) of 0.524. The relative viability (CAL-12T; first compound 0.1581 µM) was 0.233, the relative viability (CAL-12T; first compound 0.5 µM) was 0.197 and the relative viability (NCI-H1755; first compound 0.005 µM) was 0.574. The relative viability (NCI-H1755; first compound 0.01581 µM) was 0.578, the relative viability (NCI-H1755; first compound 0.05 µM) was 0.561 and the relative viability (NCI-H1755; first compound 0.1581 µM) was 0.318. For the same molecule, the relative viability (NCI-H1755; first compound 0.5 µM) was 0.309, the relative viability (NCI-H2405; first compound 0.005 µM) was 0.62 and the relative viability (NCI-H2405; first compound 0.01581 µM) was 0.558. For the same molecule, the relative viability (NCI-H2405; first compound 0.05 µM) was 0.434, the relative viability (NCI-H2405; first compound 0.1581 µM) was 0.394 and the relative viability (NCI-H2405; first compound 0.5 µM) was 0.325. It also gave a relative viability (NCI-H2342; first compound 0.005 µM) of 0.511, a relative viability (NCI-H2342; first compound 0.01581 µM) of 0.591 and a relative viability (NCI-H2342; first compound 0.05 µM) of 0.511. It also gave a relative viability (NCI-H2342; first compound 0.1581 µM) of 0.549, a relative viability (NCI-H2342; first compound 0.5 µM) of 0.459 and a relative viability (PC-14; first compound 0.005 µM) of 0.691. It also gave a relative viability (PC-14; first compound 0.01581 µM) of 0.455, a relative viability (PC-14; first compound 0.05 µM) of 0.71 and a relative viability (PC-14; first compound 0.1581 µM) of 0.166. It also gave a relative viability (PC-14; first compound 0.5 µM) of 0.115, a relative viability (HCC-827; first compound 0.005 µM) of 0.467 and a relative viability (HCC-827; first compound 0.01581 µM) of 0.348. The relative viability (HCC-827; first compound 0.05 µM) was 0.265, the relative viability (HCC-827; first compound 0.1581 µM) was 0.175 and the relative viability (HCC-827; first compound 0.5 µM) was 0.159. The relative viability (EKVX; first compound 0.005 µM) was 0.573, the relative viability (EKVX; first compound 0.01581 µM) was 0.499 and the relative viability (EKVX; first compound 0.05 µM) was 0.635. For the same molecule, the relative viability (EKVX; first compound 0.1581 µM) was 0.37, the relative viability (EKVX; first compound 0.5 µM) was 0.22 and the relative viability (LK-2; first compound 0.005 µM) was 0.194. It also gave a relative viability (LK-2; first compound 0.01581 µM) of 0.175, a relative viability (LK-2; first compound 0.05 µM) of 0.205 and a relative viability (LK-2; first compound 0.1581 µM) of 0.156. It also gave a relative viability (LK-2; first compound 0.5 µM) of 0.154, a relative viability (NCI-H661; first compound 0.005 µM) of 0.559 and a relative viability (NCI-H661; first compound 0.01581 µM) of 0.617. For the same molecule, the relative viability (NCI-H661; first compound 0.05 µM) was 0.545, the relative viability (NCI-H661; first compound 0.1581 µM) was 0.413 and the relative viability (NCI-H661; first compound 0.5 µM) was 0.363. For the same molecule, the relative viability (NCI-H520; first compound 0.005 µM) was 0.25, the relative viability (NCI-H520; first compound 0.01581 µM) was 0.262 and the relative viability (NCI-H520; first compound 0.05 µM) was 0.33. It also gave a relative viability (NCI-H520; first compound 0.1581 µM) of 0.212, a relative viability (NCI-H520; first compound 0.5 µM) of 0.16 and a relative viability (NCI-H2228; first compound 0.005 µM) of 0.404. The relative viability (NCI-H2228; first compound 0.01581 µM) was 0.209, the relative viability (NCI-H2228; first compound 0.05 µM) was 0.244 and the relative viability (NCI-H2228; first compound 0.1581 µM) was 0.097. It also gave a relative viability (NCI-H2228; first compound 0.5 µM) of 0.0984, a relative viability (H3255; first compound 0.005 µM) of 0.521 and a relative viability (H3255; first compound 0.01581 µM) of 0.579. The relative viability (H3255; first compound 0.05 µM) was 0.53, the relative viability (H3255; first compound 0.1581 µM) was 0.429 and the relative viability (H3255; first compound 0.5 µM) was 0.453. The relative viability (NCI-H1734; first compound 0.005 µM) was 0.355, the relative viability (NCI-H1734; first compound 0.01581 µM) was 0.285 and the relative viability (NCI-H1734; first compound 0.05 µM) was 0.222. The relative viability (NCI-H1734; first compound 0.1581 µM) was 0.133, the relative viability (NCI-H1734; first compound 0.5 µM) was 0.13 and the relative viability (NCI-H1975; first compound 0.005 µM) was 0.532. It also gave a relative viability (NCI-H1975; first compound 0.01581 µM) of 0.775, a relative viability (NCI-H1975; first compound 0.05 µM) of 0.917 and a relative viability (NCI-H1975; first compound 0.1581 µM) of 0.6. The relative viability (NCI-H1975; first compound 0.5 µM) was 0.315, the relative viability (PC-3 [JPC-3]; first compound 0.005 µM) was 0.607 and the relative viability (PC-3 [JPC-3]; first compound 0.01581 µM) was 0.721. The relative viability (PC-3 [JPC-3]; first compound 0.05 µM) was 0.727, the relative viability (PC-3 [JPC-3]; first compound 0.1581 µM) was 0.499 and the relative viability (PC-3 [JPC-3]; first compound 0.5 µM) was 0.454. For the same molecule, the relative viability (LCLC-97TM1; first compound 0.005 µM) was 0.45, the relative viability (LCLC-97TM1; first compound 0.01581 µM) was 0.37 and the relative viability (LCLC-97TM1; first compound 0.05 µM) was 0.439. It also gave a relative viability (LCLC-97TM1; first compound 0.1581 µM) of 0.191, a relative viability (LCLC-97TM1; first compound 0.5 µM) of 0.139 and a relative viability (HCC-15; first compound 0.005 µM) of 0.597. For the same molecule, the relative viability (HCC-15; first compound 0.01581 µM) was 0.67, the relative viability (HCC-15; first compound 0.05 µM) was 0.669 and the relative viability (HCC-15; first compound 0.1581 µM) was 0.56. The relative viability (HCC-15; first compound 0.5 µM) was 0.412, the relative viability (NCI-H1650; first compound 0.005 µM) was 0.44 and the relative viability (NCI-H1650; first compound 0.01581 µM) was 0.507. For the same molecule, the relative viability (NCI-H1650; first compound 0.05 µM) was 0.354, the relative viability (NCI-H1650; first compound 0.1581 µM) was 0.311 and the relative viability (NCI-H1650; first compound 0.5 µM) was 0.259. It also gave a relative viability (NCI-H1355; first compound 0.005 µM) of 0.41, a relative viability (NCI-H1355; first compound 0.01581 µM) of 0.402 and a relative viability (NCI-H1355; first compound 0.05 µM) of 0.31. It also gave a relative viability (NCI-H1355; first compound 0.1581 µM) of 0.2, a relative viability (NCI-H1355; first compound 0.5 µM) of 0.21 and a relative viability (RERF-LC-KJ; first compound 0.005 µM) of 0.461. For the same molecule, the relative viability (RERF-LC-KJ; first compound 0.01581 µM) was 0.477, the relative viability (RERF-LC-KJ; first compound 0.05 µM) was 0.5 and the relative viability (RERF-LC-KJ; first compound 0.1581 µM) was 0.391. For the same molecule, the relative viability (RERF-LC-KJ; first compound 0.5 µM) was 0.297, the relative viability (NCI-H322M; first compound 0.005 µM) was 0.455 and the relative viability (NCI-H322M; first compound 0.01581 µM) was 0.392. The relative viability (NCI-H322M; first compound 0.05 µM) was 0.325, the relative viability (NCI-H322M; first compound 0.1581 µM) was 0.377 and the relative viability (NCI-H322M; first compound 0.5 µM) was 0.269. The relative viability (NCI-H1563; first compound 0.005 µM) was 0.691, the relative viability (NCI-H1563; first compound 0.01581 µM) was 0.797 and the relative viability (NCI-H1563; first compound 0.05 µM) was 0.773. The relative viability (NCI-H1563; first compound 0.1581 µM) was 0.583 and the relative viability (NCI-H1563; first compound 0.5 µM) was 0.628.
